Data on 61 compounds can be found in ChEMBL document CHEMBL1697723, “A predictive ligand-based Bayesian model for human drug-induced liver injury” (Drug Metab Dispos, 2010).

This data set deals with Hepatotoxicity. Briefly: Human drug-induced liver injury (DILI) modelling dataset from Ekins et al.

Starred links: 1 amine or outer side, 2 acyl side, 3 side chain; linkers in the order of their positions; H or OH if unused. Positions of bridges follow the written chain, without caps; N, C: chain ends. Non-standard residues stand in square brackets, D forms with d. Residues, ends and D or L forms follow the SMILES beside them. Adda = CO[C@@H](Cc1ccccc1)[C@@H](C)/C=C(C)/C=C/[C@H](N[*:1])[C@H](C)C(=O)[*:2]; dAsp(3S-Me) = C[C@H](C(=O)[*:3])[C@@H](N[*:1])C(=O)[*:2]; d(γGlu) = O=C(O)[C@@H](CCC(=O)[*:2])N[*:1]; NMeDha = C=C(NC)C(=O)O

Consider `O=C1OC(c2ccc(O)c(S(=O)(=O)O)c2)(c2ccc(O)c(S(=O)(=O)O)c2)c2c(Br)c(Br)c(Br)c(Br)c21` [SULFOBROMOPHTHALEIN], for which the Hepatotoxicity entry is reported as “DILI positive (test set)”.
On the same count and under the same terms, the entry for `CC(C(=O)O)c1ccc(-c2ccccc2)c(F)c1` (stereo unspecified) [FLURBIPROFEN] is “DILI positive (training set)”; for `O=C(O)c1ccccc1Nc1cccc(C(F)(F)F)c1` [FLUFENAMIC ACID] it is “DILI negative (test set)”.
As for `C[C@H](CS)C(=O)N1CCC[C@H]1C(=O)O` [CAPTOPRIL], the Hepatotoxicity result is reported as “DILI positive (training set)”.
On the same count and under the same terms, the entry for `O=c1[nH]c2ccccc2n1C1CCN(CCCC(c2ccc(F)cc2)c2ccc(F)cc2)CC1` [PIMOZIDE] is “DILI negative (test set)”; for `CC(C)N(CCC(C(N)=O)(c1ccccc1)c1ccccn1)C(C)C.O=P(O)(O)O` (stereo unspecified) [DISOPYRAMIDE PHOSPHATE] it is “DILI positive (training set)”.
On the same count and under the same terms, for `Cc1ccc(C(=O)c2ccc(CC(=O)O)n2C)cc1` [TOLMETIN] the value was “DILI positive (training set)”; for `CCC(=O)OCC(=O)[C@@]1(OC(=O)CC)[C@@H](C)C[C@H]2[C@@H]3CCC4=CC(=O)C=C[C@]4(C)[C@@]3(Cl)[C@@H](O)C[C@@]21C` [BECLOMETHASONE DIPROPIONATE], “DILI negative (training set)”.
As for `CN1C(C(=O)Nc2nccs2)=C(O)c2ccccc2S1(=O)=O` [SUDOXICAM], the Hepatotoxicity result is listed as “DILI positive (test set)”.
Still for that read-out and setting: for `C[C@H]1O[C@@H](O[C@H]2[C@@H](O)C[C@H](O[C@H]3[C@@H](O)C[C@H](O[C@H]4CC[C@@]5(C)[C@H](CC[C@@H]6[C@@H]5C[C@@H](O)[C@]5(C)[C@@H](C7=CC(=O)OC7)CC[C@]65O)C4)O[C@@H]3C)O[C@@H]2C)C[C@H](O)[C@@H]1O` [DIGOXIN] the value was “DILI negative (training set)”; for `CCCc1nc(C(C)(C)O)c(C(=O)O)n1Cc1ccc(-c2ccccc2-c2nnn[nH]2)cc1` [OLMESARTAN], “DILI negative (test set)”; for `CC(C)NNC(=O)c1ccncc1` [IPRONIAZID], “DILI positive (test set)”.
Regarding `CCOC(=O)CN[C@@H](C(=O)N1CC[C@H]1C(=O)NCc1ccc(/C(N)=N\O)cc1)C1CCCCC1` [XIMELAGATRAN], the Hepatotoxicity entry is listed as “DILI positive (test set)”.
Take `ClC=C(Cl)Cl` [TRICHLOROETHYLENE]: the Hepatotoxicity entry is reported as “DILI positive (test set)”.
Regarding `CCCCC1=NC2(CCCC2)C(=O)N1Cc1ccc(-c2ccccc2-c2nnn[nH]2)cc1` [IRBESARTAN], the Hepatotoxicity result was “DILI negative (test set)”.
Still for that read-out and setting: for `COc1cccc2c1C(=O)c1c(O)c3c(c(O)c1C2=O)C[C@@](O)(C(=O)CO)C[C@@H]3O[C@H]1C[C@H](N)[C@@H](O)[C@H](C)O1` [EPIRUBICIN] the value was “DILI negative (test set)”.
Same read-out and setting: the entry for `CS(=O)(=O)OCCCCOS(C)(=O)=O` [BUSULFAN] is “DILI positive (training set)”; for `CN(C)c1ccc(O)c2c1C[C@H]1C[C@H]3[C@H](N(C)C)C(O)=C(C(N)=O)C(=O)[C@@]3(O)C(O)=C1C2=O.Cl` [MINOCYCLINE HYDROCHLORIDE] it is “DILI positive (test set)”; for `O=C(COc1ccc(Cl)cc1)N1CCN(Cc2ccc3c(c2)OCO3)CC1` [FIPEXIDE] it is “DILI positive (test set)”.
Still for that read-out and setting: for `CCC[C@@H]1C[C@@H](C(=O)N[C@@H]([C@H]2O[C@H](SC)[C@H](O)[C@@H](O)[C@H]2O)[C@H](C)Cl)N(C)C1.Cl` [CLINDAMYCIN HYDROCHLORIDE] the value was “DILI positive (test set)”.
`CC(=O)O[C@]1(C(C)=O)CC[C@H]2[C@@H]3C=C(Cl)C4=CC(=O)[C@@H]5C[C@@H]5[C@]4(C)[C@H]3CC[C@@]21C` [CYPROTERONE ACETATE]: the Hepatotoxicity result is “DILI positive (training set)”.
Same read-out and setting: the entry for `NC(=O)c1cnccn1` [PYRAZINAMIDE] is “DILI positive (training set)”; for `CC(N/C(=N\C#N)Nc1ccncc1)C(C)(C)C` (stereo unspecified) [PINACIDIL ANHYDROUS] it is “DILI negative (training set)”.
Same read-out and setting: for `Nc1ccc(Cc2ccc(N)cc2)cc1` the value was “DILI positive (test set)”.
In the case of `O=C1NC(=O)C(c2ccccc2)(c2ccccc2)N1` [PHENYTOIN], the Hepatotoxicity result (Liver) was “DILI positive (training set)”.
Regarding `CCCSc1ccc2nc(NC(=O)OC)[nH]c2c1` [ALBENDAZOLE], the Hepatotoxicity result is “DILI positive (training set)”.
Take `C#C[C@]1(O)CC[C@H]2[C@@H]3CCC4=Cc5oncc5C[C@]4(C)[C@H]3CC[C@@]21C` [DANAZOL]: the Hepatotoxicity entry is “DILI positive (training set)”.
The same measure, in the same setting: the entry for `CC(C(=O)O)c1cccc(C(=O)c2ccccc2)c1` (stereo unspecified) [KETOPROFEN] is “DILI negative (test set)”; for `Nc1nc(=O)[nH]cc1F` [FLUCYTOSINE] it is “DILI positive (training set)”; for `CCc1nc(N)nc(N)c1-c1ccc(Cl)cc1` [PYRIMETHAMINE] it is “DILI positive (training set)”.
Same read-out and setting: the entry for `C[C@H](O)C(=O)Nc1c(I)c(C(=O)NC(CO)CO)c(I)c(C(=O)NC(CO)CO)c1I` [IOPAMIDOL] is “DILI positive (test set)”.
The same measure, in the same setting: for `CC1(C)C(C=C(Cl)Cl)C1C(=O)OCc1cccc(Oc2ccccc2)c1` (stereo unspecified) [PERMETHRIN] the value was “DILI negative (test set)”; for `CC(C)(O)c1ccccc1CC[C@@H](SCC1(CC(=O)O)CC1)c1cccc(/C=C/c2ccc3ccc(Cl)cc3n2)c1` [MONTELUKAST], “DILI negative (training set)”; for `CCN(CC)CCNc1ccc(CO)c2sc3ccccc3c(=O)c12` [HYCANTHONE], “DILI positive (training set)”.
On to `Clc1ccc(CSC(Cn2ccnc2)c2ccc(Cl)cc2Cl)cc1.O=[N+]([O-])O` (stereo unspecified) [SULCONAZOLE NITRATE], for which the Hepatotoxicity result is “DILI negative (test set)”.
The same measure, in the same setting: the entry for `NC(=O)c1ncn([C@@H]2O[C@H](CO)[C@@H](O)[C@H]2O)n1` [RIBAVIRIN] is “DILI negative (training set)”; for `NC(=O)OCC(COC(N)=O)c1ccccc1` [FELBAMATE] it is “DILI positive (training set)”; for `CCC1(c2ccccc2)C(=O)NCNC1=O` [PRIMIDONE] it is “DILI negative (training set)”.
On the same count and under the same terms, the entry for `O=C1CC[C@@]2(O)[C@H]3Cc4ccc(O)c5c4[C@@]2(CCN3CC2CC2)[C@H]1O5` [NALTREXONE] is “DILI positive (training set)”; for `Oc1c(Cl)cc(Cl)cc1Sc1cc(Cl)cc(Cl)c1O` [BITHIONOL] it is “DILI positive (test set)”.
As to `CC[C@H]1OC(=O)[C@H](C)C(=O)[C@H](C)[C@@H](O[C@@H]2O[C@H](C)C[C@H](N(C)C)[C@H]2O)[C@](C)(OC)C[C@@H](C)C(=O)[C@H](C)[C@H]2N(CCCCn3cnc(-c4cccnc4)c3)C(=O)O[C@]12C` [TELITHROMYCIN], for the setting “Liver”, the Hepatotoxicity entry is reported as “DILI positive (test set)”.
Consider `COc1cccc2c1C(=O)c1c(O)c3c(c(O)c1C2=O)C[C@@](O)(C(=O)CO)C[C@@H]3O[C@H]1C[C@H](N)[C@H](O)[C@H](C)O1` [DOXORUBICIN], for which the Hepatotoxicity entry is reported as “DILI negative (test set)”.
Still for that read-out and setting: for `Oc1c(Cl)cc(Cl)c(Cl)c1Cc1c(O)c(Cl)cc(Cl)c1Cl` [HEXACHLOROPHENE] the value was “DILI positive (test set)”; for `COc1ccccc1Oc1c(NS(=O)(=O)c2ccc(C(C)(C)C)cc2)nc(-c2ncccn2)nc1OCCO` [BOSENTAN], “DILI positive (test set)”; for `CCC1=C(C)CN(C(=O)NCCc2ccc(S(=O)(=O)NC(=O)N[C@H]3CC[C@H](C)CC3)cc2)C1=O` [GLIMEPIRIDE], “DILI negative (training set)”.
For the compound `CC(C)NCC(O)c1ccc(O)c(O)c1.Cl` (stereo unspecified) [ISOPROTERENOL HYDROCHLORIDE], the Hepatotoxicity result (Liver) is “DILI negative (training set)”.
On to `O=c1[nH]cc(F)c(=O)[nH]1` [FLUOROURACIL], for which the Hepatotoxicity result is given as “DILI positive (test set)”.
Still for that read-out and setting: for `CC(COc1ccccc1)N(CCCl)Cc1ccccc1.Cl` (stereo unspecified) [PHENOXYBENZAMINE HYDROCHLORIDE] the value was “DILI negative (training set)”; for `CCc1ccc(CCOc2ccc(CC3SC(=O)NC3=O)cc2)nc1` (stereo unspecified) [PIOGLITAZONE], “DILI negative (test set)”.
Consider `Nc1nc(Cl)nc2c1ncn2[C@H]1C[C@H](O)[C@@H](CO)O1` [CLADRIBINE], for which the Hepatotoxicity result is “DILI negative (training set)”.
Same read-out and setting: for `C=C1C(=O)N[C@H](C)C(=O)N[C@@H](CC(C)C)C(=O)N[C@@H](C(=O)O)[C@H](C)C(=O)N[C@@H](CCCNC(=N)N)C(=O)N[C@@H](/C=C/C(C)=C/[C@H](C)[C@H](Cc2ccccc2)OC)[C@H](C)C(=O)N[C@@H](C(=O)O)CCC(=O)N1C` [MICROCYSTIN-LR] (R[Adda][d(γGlu)][NMeDha][dA]L[dAsp(3S-Me)]-OH; lactam N-7) the value was “DILI positive (test set)”; for `Cc1cc(C(=O)NNCc2ccccc2)no1` [ISOCARBOXAZID], “DILI negative (test set)”.
Turning to `CC[C@@H]1C(=O)OC[C@@H]1Cc1cncn1C` [PILOCARPINE], the Hepatotoxicity result is reported as “DILI negative (training set)”.
In the case of `Cl.Cl.O=C1c2c(O)ccc(O)c2C(=O)c2c(NCCNCCO)ccc(NCCNCCO)c21` [MITOXANTRONE HYDROCHLORIDE], the Hepatotoxicity entry was “DILI positive (training set)”.
Same read-out and setting: the entry for `O=C1CC2(CCCC2)CC(=O)N1CCCCN1CCN(c2ncccn2)CC1` [BUSPIRONE] is “DILI negative (test set)”; for `CCCNC(=O)NS(=O)(=O)c1ccc(Cl)cc1` [CHLORPROPAMIDE] it is “DILI positive (test set)”.
`CN(C)N=O` [N-NITROSODIMETHYLAMINE]: the Hepatotoxicity result is recorded as “DILI positive (test set)”.
Still for that read-out and setting: for `CN(N=O)C(=O)N[C@@H](C=O)[C@@H](O)[C@H](O)[C@H](O)CO` [STREPTOZOCIN] the value was “DILI negative (test set)”; for `Oc1ncnc2[nH]ncc12` [ALLOPURINOL], “DILI positive (training set)”; for `S=C=Nc1ccccc1` [PHENYLISOTHIOCYANATE], “DILI positive (test set)”.
Same read-out and setting: the entry for `C=C1c2cccc(O)c2C(=O)C2=C(O)[C@]3(O)C(=O)C(C(N)=O)=C(O)[C@@H](N(C)C)[C@@H]3[C@@H](O)[C@H]12.Cl` [METHACYCLINE HYDROCHLORIDE] is “DILI positive (training set)”.
